Experimental data from PubChem BioAssay (NCI).
“And” between values parts separate entries of the source, which are not always exact repeats. Equal entries are not always repeated.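 Growth conditions: 96-well plates. Treatment: test compound, 48 hours, 5 concentrations. Analysis: linear interpolation between bracketing concentrations; unreached endpoints set to highest concentration. GI50: concentration for 50% inhibition of growth. TGI: total growth inhibition.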

What was measured:
Assay in all cases: inhibition of tumour cell growth, NCI panel, 48 h
[1] = system: RPMI-8226 leukemia
[2] = system: IGROV1 ovarian
[3] = system: NCI-H522 lung
[4] = system: MCF7 breast
[5] = system: UACC-62 melanoma
[6] = system: U251 CNS
[7] = system: PC-3 prostate
[8] = system: SNB-19 CNS
[9] = system: SK-MEL-28 melanoma
[10] = system: A549 NSCLC
[11] = system: UACC-257 melanoma
[12] = system: K-562 leukemia
[13] = system: HCT-116 colon
[14] = system: COLO 205 colon
[15] = system: SR leukemia
[16] = system: SK-MEL-5 melanoma
[17] = system: SF-539 CNS
[18] = system: SNB-75 CNS
[19] = system: NCI-H460 lung
[20] = system: NCI-H23 lung
[21] = system: SK-OV-3 ovarian
[22] = system: HCT-15 colon
[23] = system: HL-60(TB) leukemia
[24] = system: OVCAR-3 ovarian
[25] = system: MDA-MB-231 breast
[26] = system: SW-620 colon
[27] = system: KM12 colon
[28] = system: SF-268 CNS
[29] = system: SN12C renal
[30] = system: CAKI-1 renal
[31] = system: HOP-92 NSCLC
[32] = system: EKVX NSCLC
[33] = system: A498 renal
[34] = system: SF-295 CNS
[35] = system: MDA-MB-435
[36] = system: UO-31 renal
[37] = system: ACHN renal
[38] = system: HOP-62 NSCLC
[39] = system: BT-549 breast
[40] = system: HT29 colon
[41] = system: LOX IMVI melanoma
[42] = system: M14 melanoma
[43] = system: OVCAR-4 ovarian
[44] = system: 786-0 renal
[45] = system: OVCAR-5 ovarian
[46] = system: MALME-3M melanoma
[47] = system: NCI-H226 lung
[48] = system: HCC-2998 colon
[49] = system: TK-10 renal
[50] = system: DU-145 prostate
[51] = system: RXF 393 renal
[52] = system: MOLT-4 leukemia
[53] = system: OVCAR-8 ovarian
[54] = system: HS 578T breast
[55] = system: SK-MEL-2 melanoma
[56] = system: NCI/ADR-RES ovarian
[57] = system: CCRF-CEM leukemia
[58] = system: T-47D breast

## O=C(Nc1ccc([N+](=O)[O-])cc1Cl)c1cc(Cl)ccc1O
[1]
  GI50: 50.2 nM and 176 nM
  TGI: 287 nM
[2]
  GI50: 229 nM and 294 nM
  TGI: 18700 nM and 8490 nM
[3]
  GI50: 76.4 nM and 171 nM
[4]
  GI50: 151 nM and 286 nM
[5]
  GI50: 77.3 nM and 67.8 nM
  TGI: 568 nM and 392 nM
[6]
  GI50: 97.1 nM and 217 nM
[7]
  GI50: 203 nM and 295 nM
  TGI: 5420 nM and > 38700 nM
[8]
  GI50: 164 nM and 248 nM
  TGI: 50000 nM and > 100000 nM
[9]
  GI50: 165 nM and 243 nM
  TGI: 2030 nM and 2010 nM
[10]
  GI50: 163 nM and 327 nM
  TGI: 23400 nM and > 100000 nM
[11]
  GI50: 84.6 nM and 185 nM
  TGI: 267 nM and 603 nM
[12]
  GI50: 120 nM and 210 nM
[13]
  GI50: 121 nM and 172 nM
  TGI: 397 nM and 483 nM
[14]
  GI50: 1340 nM and 1520 nM
  TGI: 3260 nM and 3220 nM
[15]
  GI50: 145 nM and 134 nM
  TGI: 761 nM
[16]
  GI50: 51.5 nM and 116 nM
  TGI: 150 nM and 276 nM
[17]
  GI50: 188 nM and 261 nM
  TGI: 4300 nM and 12000 nM
[18]
  GI50: 155 nM and 211 nM
  TGI: 2490 nM and 864 nM
[19]
  GI50: 134 nM and 213 nM
  TGI: 5980 nM
[20]
  GI50: 104 nM and 190 nM
  TGI: 390 nM and 737 nM
[21]
  GI50: 150 nM and 234 nM
  TGI: 660 nM
[22]
  GI50: 154 nM and 260 nM
  TGI: 3200 nM
[23]
  GI50: 115 nM
  TGI: 244 nM
[24]
  GI50: 141 nM and 283 nM
  TGI: 2590 nM and 21500 nM
[25]
  GI50: 110 nM and 162 nM
  TGI: 461 nM and 593 nM
[26]
  GI50: 163 nM and 333 nM
  TGI: 15500 nM and 11900 nM
[27]
  GI50: 169 nM and 303 nM
  TGI: 608 nM and 1200 nM
[28]
  GI50: 152 nM and 317 nM
[29]
  GI50: 115 nM and 195 nM
[30]
  GI50: 108 nM and 227 nM
  TGI: 4210 nM
[31]
  GI50: 19.4 nM and 59.1 nM
  TGI: 100 nM and 261 nM
[32]
  GI50: 160 nM and 315 nM
[33]
  GI50: 32.9 nM and 83.2 nM
  TGI: 171 nM and 353 nM
[34]
  GI50: 112 nM and 207 nM
  TGI: 308 nM and 609 nM
[35]
  GI50: 115 nM and 244 nM
  TGI: 381 nM and 1330 nM
[36]
  GI50: 129 nM and 254 nM
  TGI: 437 nM and 1010 nM
[37]
  GI50: 155 nM and 258 nM
  TGI: 19400 nM
[38]
  GI50: 149 nM and 262 nM
  TGI: 469 nM
[39]
  GI50: 105 nM and 156 nM
  TGI: 344 nM and 647 nM
[40]
  GI50: 1260 nM and 2160 nM
  TGI: 3680 nM and > 28800 nM
[41]
  GI50: 162 nM and 244 nM
[42]
  GI50: 160 nM and 318 nM
  TGI: 645 nM and 1750 nM
[43]
  GI50: 156 nM and 259 nM
  TGI: 13400 nM and > 100000 nM
[44]
  GI50: 142 nM and 268 nM
  TGI: 488 nM and 825 nM
[45]
  GI50: 249 nM and 373 nM
  TGI: 50000 nM and > 95500 nM
[46]
  GI50: 101 nM and 194 nM
  TGI: 338 nM and 744 nM
[47]
  GI50: 155 nM and 334 nM
[48]
  GI50: 215 nM and 452 nM
  TGI: 2580 nM and 3430 nM
[49]
  GI50: 165 nM and 307 nM
  TGI: 1670 nM and 984 nM
[50]
  GI50: 199 nM and 352 nM
  TGI: 6220 nM and 35500 nM
[51]
  GI50: 135 nM and 268 nM
  TGI: 434 nM and 2710 nM
[52]
  GI50: 121 nM and 273 nM
  TGI: 374 nM and 1030 nM
[53]
  GI50: 147 nM and 330 nM
  TGI: 605 nM
[54]
  GI50: 133 nM and 207 nM
[55]
  GI50: 111 nM and 167 nM
  TGI: 268 nM and 443 nM
[56]
  GI50: 137 nM and 231 nM
  TGI: 536 nM and 1350 nM
[57]
  GI50: 133 nM and 305 nM
[58]
  GI50: 107 nM and 188 nM
  TGI: 361 nM and 836 nM

## N/C(=N/O)NOCCC(N)C(=O)O (stereo unspecified)
[1]
  GI50: > 100000 nM
  TGI: > 100000 nM
[2]
  GI50: > 100000 nM
  TGI: > 100000 nM
[3]
  GI50: > 100000 nM
  TGI: > 100000 nM
[4]
  GI50: > 100000 nM
  TGI: > 100000 nM
[5]
  GI50: > 100000 nM
  TGI: > 100000 nM
[6]
  GI50: > 100000 nM
  TGI: > 100000 nM
[7]
  GI50: > 100000 nM
  TGI: > 100000 nM
[8]
  GI50: > 100000 nM
  TGI: > 100000 nM
[9]
  GI50: > 100000 nM
  TGI: > 100000 nM
[10]
  GI50: > 100000 nM
  TGI: > 100000 nM
[11]
  GI50: > 100000 nM
  TGI: > 100000 nM
[12]
  GI50: > 100000 nM
  TGI: > 100000 nM
[13]
  GI50: > 100000 nM
  TGI: > 100000 nM
[14]
  GI50: > 100000 nM
  TGI: > 100000 nM
[15]
  GI50: > 100000 nM
  TGI: > 100000 nM
[16]
  GI50: > 100000 nM
  TGI: > 100000 nM
[17]
  GI50: > 100000 nM
  TGI: > 100000 nM
[18]
  GI50: > 100000 nM
  TGI: > 100000 nM
[19]
  GI50: > 100000 nM
  TGI: > 100000 nM
[20]
  GI50: > 100000 nM
  TGI: > 100000 nM
[21]
  GI50: > 100000 nM
  TGI: > 100000 nM
[22]
  GI50: > 100000 nM
  TGI: > 100000 nM
[23]
  GI50: > 100000 nM
  TGI: > 100000 nM
[24]
  GI50: > 100000 nM
  TGI: > 100000 nM
[25]
  GI50: > 100000 nM
  TGI: > 100000 nM
[26]
  GI50: > 100000 nM
  TGI: > 100000 nM
[27]
  GI50: > 100000 nM
  TGI: > 100000 nM
[28]
  GI50: > 100000 nM
  TGI: > 100000 nM
[29]
  GI50: > 100000 nM
  TGI: > 100000 nM
[30]
  GI50: > 100000 nM
  TGI: > 100000 nM
[31]
  GI50: > 100000 nM
  TGI: > 100000 nM
[32]
  GI50: > 100000 nM
  TGI: > 100000 nM
[33]
  GI50: > 100000 nM
  TGI: > 100000 nM
[34]
  GI50: > 100000 nM
  TGI: > 100000 nM
[35]
  GI50: > 100000 nM
  TGI: > 100000 nM
[36]
  GI50: > 100000 nM
  TGI: > 100000 nM
[37]
  GI50: > 100000 nM
  TGI: > 100000 nM
[38]
  GI50: > 100000 nM
  TGI: > 100000 nM
[39]
  GI50: > 100000 nM
  TGI: > 100000 nM
[40]
  GI50: > 100000 nM
  TGI: > 100000 nM
[41]
  GI50: > 100000 nM
  TGI: > 100000 nM
[42]
  GI50: > 100000 nM
  TGI: > 100000 nM
[43]
  GI50: > 100000 nM
  TGI: > 100000 nM
[44]
  GI50: > 100000 nM
  TGI: > 100000 nM
[45]
  GI50: > 100000 nM
  TGI: > 100000 nM
[46]
  GI50: > 100000 nM
  TGI: > 100000 nM
[47]
  GI50: > 100000 nM
  TGI: > 100000 nM
[48]
  GI50: > 100000 nM
  TGI: > 100000 nM
[49]
  GI50: > 100000 nM
  TGI: > 100000 nM
[50]
  GI50: > 100000 nM
  TGI: > 100000 nM
[51]
  GI50: > 100000 nM
  TGI: > 100000 nM
[52]
  GI50: > 100000 nM
  TGI: > 100000 nM
[53]
  GI50: > 100000 nM
  TGI: > 100000 nM
[54]
  GI50: > 100000 nM
  TGI: > 100000 nM
[55]
  GI50: > 100000 nM
  TGI: > 100000 nM
[56]
  GI50: > 100000 nM
  TGI: > 100000 nM
[57]
  GI50: > 100000 nM
  TGI: > 100000 nM
[58]
  GI50: > 100000 nM
  TGI: > 100000 nM
